Patent US12595269B2, “Morpholine-like monoamine releasers” (Solvonis Therapeutics Ireland Holdings Limited, priority 2022, dated 2026)

Test system: MDCKII cells
Experiment: Apparent permeability (Papp AB) in MDCKII cells
Assay type: in vitro ADME, Canine
Conditions: MDCKII cells, pH 7.4
Method: Methods and Procedure: This study was conducted in compliance with previously described procedures to assure data integrity and adherence to GLP regulations. The experiments described herein were designed to evaluate the apparent permeability (Papp) of test compounds at pH 7.4. Additionally, the MDCKII-MDR1 cell line (Madin-Darby Canine Kidney clone II cell line heterologously expressing the human P-glycoprotein transporter) and mock cell line MDCKII were used to determine whether a compound acted as a P-gp substrate, in the absence and in the presence of the potent P-gp inhibitor. Test control items (digoxin, metoprolol, and atenolol) and control P-gp inhibitor (GF120918) stock solution were prepared in DMSO. Bidirectional assays (Apical to Basolateral [AB] and Basolateral to Apical [BA]) were run, in both the absence and presence of P-gp inhibitor GF120918 in MDCKII-MDR1 and mock cell line MDCKII, using as transport buffer HBSSH at a pH of 7.4 (n=3).
Compounds were tested at a single concentration (i.e. at 3 or 10 μM) at one time point (i.e. 60 min). Alternative concentrations or time-points may also be investigated. As reference compounds, digoxin (P-gp substrate), atenolol (low permeable compound) and metoprolol (high permeable compound) were included at a single concentration (e.g., 10 or 25 μM) and at single time point (e.g., 60 min). Digoxin transport was evaluated in two directions (apical-to-basolateral [AB] and basolateral-to-apical [BA]) in the absence and presence of GF120918 or in mock cells, MDCKII (n=3). Atenolol and metoprolol were only tested in the AB direction in absence of GF120918 or in mock cells, MDCKII (n=3). The integrity of the cell monolayer was evaluated after the permeability experiment using the paracellular permeability marker Lucifer yellow (LY) in the apical to basolateral direction in each well.
MDCKII or MDCKII-MDRI cells cultivated using DMEM (high glucose, GlutaMAX™ supplemented with pyruvate, 10% FBS HI and Pen/Strep) and seeded onto microporous PET (Polyethylene Terephthalate) membranes in HTS 96-Multiwell Insert plates at density of ˜175,000-245,000 cells/cm^2 (25000-35000 cells/well; 50 μL/well) in DMEM medium and incubated for 3-4 days at 37° C.-5% CO2. Medium was changed a day before the experiment.
Stock solutions of test items were prepared in DMSO at a concentration of 5 or 10 mM and stored at −20° C. until use. The potent P-gp inhibitor, GF120918 (stock solution 10 mM) and the reference controls digoxin, atenolol, metoprolol (stock solutions 3 or 10 mM) were prepared in DMSO and stored at −20° C. until use.
Donor working solutions of test items and reference controls will be prepared at a concentration of 10 or 25 μM, diluting the stock solutions in HBSSH. Receiver working solutions contained transport buffer only. […]
MDCKII and MDCKII-MDR1 cells were preincubated (37° C., 15 to 30 minutes) in receiver working solutions containing transport buffer on apical (A) and basolateral (B) sides. Following pre-incubation, test items and control items (digoxin) transport were measured in two directions (apical to basolateral [AB]) and basolateral to apical [BA]), and these directions were performed in triplicate sets of wells, in both the absence and presence of […] GF120918 or mock MDCKII cells. […] Transport of permeability reference controls, atenolol and metoprolol, were measured in one direction (apical to basolateral [AB]) (n=3). […]

## CNC(C)Cc1ccc2c(c1)OCO2 (stereo not shown) [MDMA, reference compound]
  Permeability Classification: high permeability
